From publication PMC5704959 (ACS chemical biology, 2016)

Biological target: human Siglec-9 (hSiglec-9-Fc, hSiglec-9) (Homo sapiens, UniProt Q9Y336)
Assay: glycan microarray, fluorescence
Assay type: binding
Conditions: glycan immobilised on epoxide slide; PBS pH 7.4, RT, 2 h

Chain of human Siglec-9 (hSiglec-9-Fc, hSiglec-9) (Q9Y336 18-348 limits assumed): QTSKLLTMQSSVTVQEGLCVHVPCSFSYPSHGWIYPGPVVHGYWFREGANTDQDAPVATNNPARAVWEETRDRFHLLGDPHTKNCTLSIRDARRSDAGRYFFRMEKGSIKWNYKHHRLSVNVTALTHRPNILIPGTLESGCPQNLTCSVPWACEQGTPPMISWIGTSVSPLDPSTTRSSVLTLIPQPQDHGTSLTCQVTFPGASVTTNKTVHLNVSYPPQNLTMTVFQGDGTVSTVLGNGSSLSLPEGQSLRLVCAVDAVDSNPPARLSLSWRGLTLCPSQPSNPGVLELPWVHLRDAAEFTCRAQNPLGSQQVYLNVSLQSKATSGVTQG

SMILES	glycan microarray, fluorescence (RFU)
CC(=O)N[C@H]1[C@H]([C@H](O)[C@H](O)COC(C)=O)O[C@@](O[C@H]2[C@@H](O)[C@@H](CO)O[C@@H](O[C@H]3[C@H](O)[C@@H](O)[C@H](OCCCN)O[C@@H]3CO)[C@@H]2O)(C(=O)O)C[C@@H]1O [Neu5,9Ac2α3Galβ4GlcβProNH2]	observable binding to both Neu5Ac9NAc (black column) and Neu5,9Ac2 (grey column)-containing glycans
CC(=O)N[C@H]1[C@H]([C@H](O)[C@H](O)CO)O[C@@](O[C@H]2[C@@H](O)[C@@H](CO)O[C@@H](O[C@H]3[C@H](O)[C@@H](O)[C@H](OCCCN)O[C@@H]3CO)[C@@H]2O)(C(=O)O)C[C@@H]1O [Neu5Acα3Galβ4GlcβProNH2]	hSiglec-9 prefers binding to Neu5Ac-glycan without 9-modification at sialic acid
